Test results reported in patent US20140179681A1, “METHODS AND COMPOSITIONS OF TARGETED DRUG DEVELOPMENT” (priority 2010, published 2014).
Structures can show the parent of a compound that is named as a salt. Where two headings read alike, the source gives them in different places.

Experiments:
[1] = system: MDBK line; experiment: MTT Cell Proliferation Assay, MDBK cells; format: cell-based, bovine
Procedure, shortened: (§1)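 Viability was measured by mitochondrial MTT reduction after cells were exposed to compound for 3 days in reduced-serum medium. Inhibition was calculated per plate against 0.5% DMSO controls.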

[2] = system: epithelial carcinoma A431 cell line; experiment: MTT Cell Proliferation Assay, A431 cells; format: cell-based; conditions: for MTT Assay IC50(A431/MDBK): ratio in parentheses: ratio MDBK IC50 / A431 IC50 (selectivity)
Procedure, shortened: as §1

[3] = target: T1, EGFR (Homo sapiens, UniProt P00533); experiment: EGFR in-cell Western (ICW) screening protocol (EGFR inhibition assay); format: cell-based; design: ICW 1 / ICW 2 / ICW Avg: unit not given here; conditions: for ICW assay: Table 10, % Inhibition of EGF dependent EGFR phosphorylation in A431 cells, compound 125 μM in assay; for ICW Avg / ICW 1 / ICW 2: ICW assay; for ICW Avg: average of runs 1 and 2; for ICW 1: run 1; for ICW 2: run 2
T1 construct: host or cells: A431
Procedure, shortened: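 Serum-starved A431 cells (2 h) were pretreated with compound for 4 h at 37° C, then stimulated with EGF (10 ng/ml final, or 6.6 or 12.5 ng/ml in some runs) for 10 min. After formaldehyde fixation, phospho-EGFR (Tyr1173, or Tyr1045 in some runs) and total EGFR were detected by in-cell Western immunostaining.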

[4] = Bos taurus, MDBK, 72 h, Table 10, second of x/y(ratio): MDBK, three day treatment, unit not printed (doses in μM), read-out: MTT assay (second value)
[5] = Homo sapiens, A-431, 72 h, Table 10, first of x/y(ratio): A431, three day treatment, unit not printed (doses in μM), read-out: MTT assay (first value)
[6] = Bos taurus, MDBK, second value of 'a/b (c)', taken as MDBK cells, read-out: MTT Screen, second value of cell
[7] = Homo sapiens, A-431, first value of 'a/b (c)', taken as A431 cells, read-out: MTT Screen, first value of cell
[8] = second value of 'a/b (c)', taken as MDBK cells, read-out: MTT Screen, second value of cell
[9] = first value of 'a/b (c)', taken as A431 cells, read-out: MTT Screen, first value of cell
[10] = MDBK cells, second value of cell, read-out: MTT Assay IC50(A431/MDBK): MDBK
[11] = A431 cells, first value of cell, read-out: MTT Assay IC50(A431/MDBK): A431

T1 sequence (P00533 25-1210): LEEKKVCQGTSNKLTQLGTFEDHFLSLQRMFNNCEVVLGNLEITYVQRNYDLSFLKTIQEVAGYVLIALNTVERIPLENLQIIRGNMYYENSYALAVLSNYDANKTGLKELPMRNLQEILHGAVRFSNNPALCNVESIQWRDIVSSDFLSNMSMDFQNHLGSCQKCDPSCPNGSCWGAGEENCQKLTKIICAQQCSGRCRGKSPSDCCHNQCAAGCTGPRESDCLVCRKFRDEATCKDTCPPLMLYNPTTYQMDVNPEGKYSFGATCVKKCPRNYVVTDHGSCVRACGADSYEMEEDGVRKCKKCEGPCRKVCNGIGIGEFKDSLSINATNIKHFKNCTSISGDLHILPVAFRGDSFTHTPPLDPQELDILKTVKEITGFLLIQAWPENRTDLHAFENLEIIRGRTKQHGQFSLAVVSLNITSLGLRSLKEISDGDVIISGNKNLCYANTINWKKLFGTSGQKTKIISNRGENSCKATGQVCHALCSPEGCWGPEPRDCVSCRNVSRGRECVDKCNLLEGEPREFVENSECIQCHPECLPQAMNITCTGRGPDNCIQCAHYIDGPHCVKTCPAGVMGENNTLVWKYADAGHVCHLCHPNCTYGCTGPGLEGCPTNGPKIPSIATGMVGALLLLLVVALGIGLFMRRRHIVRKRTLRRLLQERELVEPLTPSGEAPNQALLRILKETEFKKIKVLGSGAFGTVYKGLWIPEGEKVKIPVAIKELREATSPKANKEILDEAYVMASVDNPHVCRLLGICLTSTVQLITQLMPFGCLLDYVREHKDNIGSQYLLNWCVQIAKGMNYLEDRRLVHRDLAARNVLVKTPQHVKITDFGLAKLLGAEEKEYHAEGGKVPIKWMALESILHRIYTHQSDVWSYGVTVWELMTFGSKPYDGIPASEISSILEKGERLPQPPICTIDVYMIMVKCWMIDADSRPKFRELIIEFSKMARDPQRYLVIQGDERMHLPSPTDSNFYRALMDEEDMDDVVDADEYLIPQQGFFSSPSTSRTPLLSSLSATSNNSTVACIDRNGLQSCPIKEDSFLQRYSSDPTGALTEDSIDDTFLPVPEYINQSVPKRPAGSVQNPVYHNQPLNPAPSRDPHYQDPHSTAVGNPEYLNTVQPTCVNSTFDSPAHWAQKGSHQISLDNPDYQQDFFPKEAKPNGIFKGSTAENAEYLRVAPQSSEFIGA

CCC(C)c1ccc(NC(=S)Nc2ccc(S(=O)(=O)Nc3c(C)cc(C)cc3C)cc2)cc1 (stereo not drawn) [AD4-12403]
IC50 [1, 4]: 5.3 µM
IC50 [2, 5]: 4.03 µM
ICW assay [3]: 50.7196

CC(C)c1ccc(NC(=S)Nc2ccc(S(=O)(=O)Nc3ccccc3)cc2)cc1 [AD4-12820]
IC50 [1, 4]: 5.93 µM
IC50 [2, 5]: 5.98 µM
ICW assay [3]: 47.471

O=S(=O)(Nc1ccccc1)c1ccc(NC(=S)Nc2cc(Cl)ccc2Cl)cc1 [AD4-12855]
IC50 [1, 4]: 6.25 µM
IC50 [2, 5]: 6.83 µM
ICW assay [3]: 25.0542

CC(C)NS(=O)(=O)c1ccc(NC(=S)NC(=O)CCCCCOc2ccc(Cl)cc2Cl)cc1 [AD4-11538]
IC50 [1, 6]: 5.19 µM
IC50 [2, 7]: 5.48 µM
ICW Screen (ICW Inhibition) [3]: 34.978

Cc1cc(C)nc(NS(=O)(=O)c2ccc(NC(=S)NC(=O)/C=C/c3ccc(C(C)C)cc3)cc2)n1 [AD4-11642]
IC50 [1, 6]: 9.46 µM
IC50 [2, 7]: 9.89 µM
ICW Screen (ICW Inhibition) [3]: 40.922

CC(C)CC(=O)NC(=S)Nc1ccc(S(=O)(=O)Nc2ccccc2)cc1 [AD4-11975]
IC50 [1, 6]: 17.2 µM
IC50 [2, 7]: 17.5 µM
ICW Screen (ICW Inhibition) [3]: 75.826

CCc1nnc(NS(=O)(=O)c2ccc(NC(=S)NC(=O)/C=C/c3ccc(OC)cc3)cc2)s1 [AD4-11637]
IC50 [1, 6]: 17.8 µM
MTT Screen, first value of cell ([2]; first value of 'a/b (c)', taken as A431 cells): non- conver- gent
ICW Screen (ICW Inhibition) [3]: 33.491

COc1ccc(OCC(=O)NC(=S)Nc2ccc(S(=O)(=O)Nc3cc(C)cc(C)c3)cc2)cc1 [AD4-11396]
IC50 [1, 8]: 21.2 µM
IC50 [2, 9]: 25.1 µM
ICW Screen (ICW Inhibition) [3]: 30.745

O=C(Cc1ccccc1)NC(=S)Nc1ccc(S(=O)(=O)Nc2ccccc2)cc1 [AD4-11416]
IC50 [1, 8]: 13.5 µM
IC50 [2, 9]: 15.4 µM
ICW Screen (ICW Inhibition) [3]: 53.517

COc1ccc(NS(=O)(=O)c2ccc(NC(=S)Nc3ccccc3C(F)(F)F)cc2)cc1 [AD4-12577]
IC50 [1, 4]: 5.92 µM
IC50 [2, 5]: 6.62 µM
ICW assay [3]: 29.4151

CCCc1c(-c2ccccc2)nc(Nc2nc(C)c3ccccc3n2)[nH]c1=O [compound 12732]
IC50 [1, 10]: 15 µM
IC50 [2, 11]: 11.1 µM
MTT Assay IC50(A431/MDBK): ratio in parentheses [2]: 1.35
ICW Avg [3]: 82.77
ICW 1 [3]: 79.12
ICW 2 [3]: 86.41

CCCc1c(C)nc(Nc2nc(C)c3cccc(C)c3n2)[nH]c1=O [compound 12742]
IC50 [1, 10]: 18.9 µM
IC50 [2, 11]: 19.6 µM
MTT Assay IC50(A431/MDBK): ratio in parentheses [2]: 0.97
ICW Avg [3]: 49.20
ICW 1 [3]: 33.49
ICW 2 [3]: 64.92

CCc1c(C)nc(Nc2nc(C)c3ccc(C)cc3n2)[nH]c1=O [12683 + TFA]
IC50 [1, 10]: 45.3 µM
IC50 [2, 11]: 63.4 µM
MTT Assay IC50(A431/MDBK): ratio in parentheses [2]: 0.71
ICW Avg [3]: 40.88
ICW 1 [3]: 54.37
ICW 2 [3]: 27.38

COC(=O)c1sc2cc(NC(=S)Nc3ccc(S(=O)(=O)Nc4c(C)cc(C)cc4C)cc3)ccc2c1Cl [AD4-12560]
IC50 [1, 4]: 5.23 µM
IC50 [2, 5]: 8.88 µM
ICW assay [3]: 42.3275

O=S(=O)(Nc1ccc(Cl)cc1)c1ccc(NC(=S)Nc2ccc(Br)cc2)cc1 [AD4-12504]
IC50 [1, 4]: 15.6 µM
IC50 [2, 5]: 11.1 µM
ICW assay [3]: 118.46

COc1cc(NS(=O)(=O)c2ccc(NC(=S)NC(=O)/C=C/c3ccc(C(C)C)cc3)cc2)nc(OC)n1 [AD4-11638]
IC50 [1, 6]: 14.9 µM
IC50 [2, 7]: 11.2 µM
ICW Screen (ICW Inhibition) [3]: 68.754

CC(C)(C)C(=O)NC(=S)Nc1ccc(S(=O)(=O)NCCc2ccccc2)cc1 [AD4-10313]
IC50 [1, 8]: 17.6 µM
IC50 [2, 9]: 20.9 µM
ICW Screen (ICW Inhibition) [3]: 30.774
